Experimental data published in publication PMC11023993, “Piperine, quercetin, and curcumin identified as promising natural products for topical treatment of cutaneous leishmaniasis” (Parasitology Research, 2024).
Read-outs that look alike come from different tables or passages of the source.

Columns and labels:
[1] = tested on: L. braziliensis; set-up: method as in Dos Santos et al. [2022]; conditions: oral 20 mg/kg five times a week, from 7 days after infection for 8 weeks; ref Dos Santos et al. [2022]; cited from earlier work
[2] = tested on: L. major; set-up: method as in Almadani et al. [2021]; conditions: oral 50 mg/kg for 28 consecutive days; ref Almadani et al. [2021]; cited from earlier work
[3] = tested on: L. braziliensis amastigotes; set-up: method as in Dos Santos et al. [2022]; conditions: ref Dos Santos et al. [2022], read-out: antiamastigote activity EC50; cited from earlier work
[4] = tested on: L. braziliensis; conditions: n = 6
Description: Golden hamsters (Mesocricetus auratus) were purchased from Charles River Laboratories (Wilmington MA, USA) and bred under specific pathogen-free conditions at the animal facility unit of the Universidad de Antioquia in Medellín, Colombia. Six- to eight-week-old, male, and female hamsters were used for the experiments. Animal experimentation protocols including handling of the animals, sample collection, and euthanasia were done in compliance of the Center for Diseases Control and Prevention guidelines for Safe Work Practices in Human and Animal Medical Diagnostic Laboratories and ARRIVE guidelines (Percie du Sert et al. [2020b]; Khairani et al. [2022]) and approved by the Institutional Ethical Committee for animal experimentation (Act No. 152 of June 01, 2023) (Percie du Sert et al. [2020a]; Khairani et al. [2022]).
Hamsters were anesthetized with ketamine (80 mg/kg, i.p.) and xylazine (15 mg/Kg) before infection and then, ∼1 × 10^8 promastigotes in stationary phase (6 days-old growth) were inoculated into the dorsum dermis (Robledo et al. [2012]). When hamsters developed ulcers larger than 12.5 mm^2, hamsters were randomly distributed into 4 groups (n = 6, each): (1) group treated with QUE (1 mg/day), (2) group treated with PIP (2.5 mg/day), (3) group treated with CUR (1.5 mg/day), (4) group treated with meglumine antimoniate (treatment control group, 200 µg/mL, intralesional). No vehicle control group was included in the present study because castor oil additive is a nonionic surfactant commonly used as an excipient in pharmaceutical formulations, particularly in solubilizing poorly water-soluble drugs. It is widely used as an ingredient in cosmetics for its conditioning properties, based on occlusive action, reducing water loss, and having a nourishing effect on the skin, hair, and nails (Marwat et al. [2017]; Khairani et al. [2022]).
Hamsters were treated daily with 40 µL of the corresponding formulation for 2 weeks, applying it directly over the lesion, while hamsters treated with meglumine antimoniate received treatment three times per week for 4 weeks. Lesion area was measured every week for 90 days with an electronic digital caliper. The body weight gain or loss was supervised every 2 weeks during the study. At the end of the study, hamsters were euthanized with an i.p. injection of ketamine (600 mg/kg) and xylazine (30 mg/kg). The experiments were carried out under normal laboratory lighting conditions. After necropsy, biopsies from healed and unhealed ulcers were removed and fixed in 10% buffered formalin, processed, and stained with hematoxylin–eosin (H-E) stain for histopathology analysis. The changes were analyzed under a standard optical microscope.

[5] = tested on: intracellular amastigotes of L. braziliensis; assay: In vitro leishmanicidal activity against intracellular amastigotes in infected U-937 macrophages (flow cytometry); type: cell-based, Leishmania braziliensis; conditions: for EC50: Leishmania braziliensis
Method: Infective L. braziliensis (MHOM/CO/88/UA301-eGFP) (Pulido et al. [2012]) were cultured in Novy-MacNeal-Nicolle (NNN) biphasic medium at 26 °C for 3 passages maximum. U-937 cells, prepared as described in the previous section, were adjusted to approximately 3 × 10^5 cells per mL of supplemented RPMI 1640 medium containing […] of PMA to induce cell adherence. One mL was dispensed into each well of a 24-well plate and platters were incubated at 37 °C in % CO2, 95% humidity atmosphere for 72 h. Then, adherent cells were infected with fluorescent promastigotes of L. braziliensis in a 15:1 parasite to cell ratio. Plates were incubated again at 34 °C and % CO2, 95% humidity atmosphere. After 24 h, non-phagocytosed parasites were washed by pipetting phosphate buffered solution (PBS) in the plate at room temperature and 500 µL of fresh complete RPMI 1640 medium was added. Then, 500 µL of each serial dilution of QUE, PIP, CUR, and amphotericin B was added to each well and plates were incubated at 34 °C with % CO2, 95% humidity atmosphere. The EC50, the median effective concentration to induce […] killing of the intracellular amastigotes in infected cells, was measured by Flow cytometry at 488 nm of excitation and 525 nm of emission. After 48 h of incubation, cells were harvested with cold dissociation buffer (1x PBS with 2% EDTA) and the harvested cells were washed with buffer (1 × PBS with 2% FBS), and results were analyzed by FlowJo 10. The EC50 was determined with a non-lineal regression using Prism GraphPad 10.
The LC50 and the EC50 were calculated by Probit analysis using GraphPad Prism 10 (San Diego, CA, USA). Both cytotoxicity and leishmanicidal activity were defined by ranges of values of LC50 and EC50 in terms of high, moderate, or low as follows: high cytotoxicity for LC50 values < 100 µM, moderate cytotoxicity for LC50 values > 100 µM but < 200 µM, and low cytotoxicity for LC50 values > 200 µM. […] In addition, the cytotoxicity in U937 macrophages was correlated with the leishmanicidal activity by calculating the Selectivity Index (SI), using the equation: SI = LC50/EC50 (Indrayanto et al. [2021]).

[6] = tested on: L. braziliensis-induced cutaneous leishmaniasis ulcers; assay: Histopathological analysis (H-E) of healed ulcers from treated hamsters; type: in vivo, golden hamsters (Mesocricetus auratus); set-up: key to Dermis: oedema (grade) / Dermis: granulomatous inflammation (grade) / Epidermis: orthokeratotic hyperkeratosis (grade) / Epidermis: spongiosis (grade) / Epidermis: ulcer (grade) / Dermis: neovascularization (grade) / Dermis: fibroplasia (grade) / Dermis: leukocytic infiltrate (grade): 0, absent; 1, mild; 2, mild to moderate; 3, moderate; 4, moderate to severe; 5, severe
Method: The changes were analyzed under a standard optical microscope.

[7] = tested on: macrophages; set-up: method as in Dos Santos et al. [2022]; conditions: ref Dos Santos et al. [2022], cited from earlier work
[8] = healed ulcer after topical treatment

In the case of O=c1c(O)c(-c2ccc(O)c(O)c2)oc2cc(O)cc(O)c12 [Quercetin, quercetin], the “lesion size and parasite load (lesion and draining lymph node)” value [1] is listed as “effectively controlled the lesion size and reduced the parasite load”, the “histopathological analysis of tissue sections” value [2] is listed as “reduction in inflammatory cell count, an increase in fibroblasts, and enhanced collagen deposition” and the EC50 [3] is listed as 21 ± 2.5 µM. The treatment failures ([4]; topical daily for 15 days) was “No failures”, the “therapeutic response (hamsters cured)” value ([4]; topical in castor oil daily for 15 days, QUE 1 mg/day, CUR 1.5 mg/day, PIP 2.5 mg/day, followed 90 days) was 100% and the “SI (Selectivity Index = LC50/EC50)” value ([5]; LC50 U-937 / EC50 L. braziliensis amastigotes) was over 20.6. The EC50 ([5]; U-937, amastigote stage of L. braziliensis, read-out: in vitro antileishmanial activity (EC50 in mass units)) was 9.7 ± 0.6 µg/mL, the EC50 ([5]; intracellular amastigotes of L. braziliensis in U-937 macrophages, 48 h, read-out: EC50 (Median Effective Concentration)) was 32 ± 2 µM and the Leishmanicidal activity ([5]; class by EC50 on intracellular amastigotes of L. braziliensis) was “High (high activity corresponds to EC50 values < 50 µM)”. For the same compound, the “granulomas and amastigotes in healed skin” value ([6]; H-E stain, healed skin after topical treatment) was “No amastigotes are observed”, the “Dermis: fibroplasia (grade)” value [6, 8] was 3 and the “Dermis: granulomatous inflammation (grade)” value [6, 8] was 0. The “Dermis: leukocytic infiltrate (grade)” value [6, 8] was 3, the “Dermis: neovascularization (grade)” value [6, 8] was 2 and the “Dermis: oedema (grade)” value [6, 8] was 2. The “Epidermis: orthokeratotic hyperkeratosis (grade)” value [6, 8] was 2, the “Epidermis: spongiosis (grade)” value [6, 8] was 2 and the “Epidermis: ulcer (grade)” value [6, 8] was 0. For the same compound, the “concentration giving substantial decrease in macrophage viability” value [7] was “exceeding 640 µM” and the EC50 ([7]; read-out: macrophage viability, estimated EC50) was 478 ± 89 µM.
